From BindingDB's records for doi:10.1021/jm970101g (Abbott Laboratories, 1997)

Biological target: Endothelin-1 receptor (Rattus norvegicus) (UniProt P26684)
Experiment: Ability to block the ET-1-induced hydrolysis of inositol phosphate in Endothelin A receptor of MMQ cells.

Sequence of Endothelin-1 receptor (Rattus norvegicus) (P26684 whole entry, looked up): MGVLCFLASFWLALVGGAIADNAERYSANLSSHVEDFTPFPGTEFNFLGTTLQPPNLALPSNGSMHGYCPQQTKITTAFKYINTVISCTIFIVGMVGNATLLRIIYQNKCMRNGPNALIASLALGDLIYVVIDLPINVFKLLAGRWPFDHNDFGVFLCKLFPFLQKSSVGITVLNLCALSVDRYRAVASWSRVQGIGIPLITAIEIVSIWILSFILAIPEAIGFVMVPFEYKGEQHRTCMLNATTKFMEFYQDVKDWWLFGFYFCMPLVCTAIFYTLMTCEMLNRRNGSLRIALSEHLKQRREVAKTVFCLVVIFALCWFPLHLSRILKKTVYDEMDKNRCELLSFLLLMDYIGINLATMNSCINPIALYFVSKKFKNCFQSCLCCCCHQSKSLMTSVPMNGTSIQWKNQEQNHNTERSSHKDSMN

CCCN(CCN1C[C@H](c2ccc3c(c2)OCO3)[C@@H](C(=O)O)[C@@H]1c1ccc(OC)c(F)c1)S(=O)(=O)CCCCl [(2R,3R,4S)-4-Benzo[1,3]dioxol-5-yl-1-{2-[(3-chloro-propane-1-sulfonyl)-propyl-amino]-ethyl}-2-(3-fluoro-4-methoxy-phenyl)-pyrrolidine-3-carboxylic acid]
IC50: 0.55 nM
